From patent publication US20160139132A1, “Method of Diagnosis or Prognosis of a Neoplasm Comprising Determining the Level of Expression of a Protein in Stromal Cells Adjacent to the Neoplasm” (Thomas Jefferson University, priority 2009, published 2016)

Experiments:
neovascularization = details: Oikawa (1988); cited from earlier work
[1] = system: MDA-MB-231 breast cancer cells co-injected with Cav-1-deficient stromal fibroblasts; assay: Human tumor xenograft: nude mice co-injected with MDA-MB-231 cells and Cav-1-deficient stromal fibroblasts, treated with glycolysis inhibitors; type: in vivo; details: given individually, dosage of 200 mg/kg
Experimental: Treatment with Glycolysis Inhibitors Functionally Blocks Cancer-Associated Fibroblast Induced Breast Cancer Tumor Growth. […] Mice co-injected with Cav-1-deficient stromal fibroblasts and MDA-MB-231 breast cancer cells were treated with glycolysis inhibitors. The efficacy of two well-established glycolysis inhibitors, namely 2-DG (2-deoxy-D-glucose) and DCA (dichloro-acetate), individually or in combination were tested.
To provide additional experimental validation for the idea that an absence of stromal Cav-1 promotes breast cancer tumor growth and angiogenesis, a 2-component cell-system using xenografts in immuno-deficient female nude mice was developed. Briefly, the flanks of nude mice were injected with a mixture of 1) MDA-MB-231 cells (a highly aggressive human breast cancer cell line; 1.0×10-6 cells) and 2) stromal fibroblasts, derived from either WT or Cav-1 (−/−) null mice (0.3×10-6 cells). After 3 weeks, nude mice were sacrificed and breast cancer-derived tumors were subjected to analysis for growth (tumor weight and volume measurements) and immuno-histochemistry with markers of angiogenesis, such as CD31 (a.k.a, PECAM1).
In this two-component system, nude mice are co-injected with i) human breast cancer ceils (MDA-MB-231), and ii) stromal fibroblasts (WT versus Cav-1 (−/−) deficient). […]

[2] = system: Cav-1 in stromal fibroblasts co-cultured with MCF-7 cells; assay: Co-culture of MCF-7 breast cancer cells with normal human fibroblasts: Cav-1 down-regulation; type: cell-based; details: co-culture with MCF-7 cells
Description: Using this system, it was observed that within 5 days of co-culture MCF-7 cells down-regulate the expression of Cav-1 in adjacent stromal fibroblasts. This occurs via the degradation of Cav-1 in lysosomal structures, and can be inhibited by chloroquine, an anti-lysomal agent. Most importantly, MCF-7 cells induce oxidative stress in the adjacent fibroblasts via the over-production of reactive oxygen species (ROS). ROS, in turn, is known to stabilize and activate certain transcription factors, such as NFkB and HIF. NFkB- and HIF-are the master regulators of “inflammation” and “hypoxia/aerobic glycolysis” in the tumor microenvironment. Thus, in order to detect the activation of NFkB and HIF only in the fibroblast cell population, two different fibroblast cell lines engineered to express either a NFkB-luciferase or HIF-luciferase transcriptional reporter were used. […] As such, NFkB is activated first, while HIF is activated on day 4 and day 5 of coculture, coincident with Cav-1 down-regulation. Thus, cancer cells induce the Warburg effect in adjacent stromal fibroblasts via the activation of NFkB and HIF-target genes, leading to inflammation and aerobic glycolysis. These findings provide a mechanistic basis for the “Reverse Warburg Effect”, and a new high-throughput drug-screening assay for the identification of novel compounds that block the “Reverse Warburg Effect”.

breast cancer patients = assay: Progression-free survival of breast cancer patients (tissue microarray cohort) by stromal Cav-1 and tamoxifen use; type: in vivo, human; details: Tamoxifen use Yes vs No (ref); adjusted for T stage, N stage, Cav-1 score
Experimental: Breast tissues for tissue microarray construction were obtained from the Surgical Pathology files at the University of Michigan with Institutional Review Board (IRB) approval. The TMA contained tissues derived from 154 largely consecutive patients with invasive carcinomas of the breast, with follow-up information treated at the University of Michigan from 1987-1991. Clinical and pathological variables were determined following well-established criteria. All invasive carcinomas were graded according to the method described by Elston and Ellis 17; Lymphovascular Invasion (LV1) was classified as either present or absent. […]
Cav-1 expression in the tumor stroma was assessed by employing a standard immuno-peroxidase method (DakoCytornation LSAB2 System-HRP, Carpinteria, Calif.), using rabbit polyclonal antl-Cav-1 TgG (N-20; directed against Ntenninal residues 2-21 of human Cav-1; Santa Cruz Biotechnology, Santa Cruz, Calif.; dilution 1:500). The staining was scored semi-quantitatively as negative (0; no staining), weak (1; either diffuse weak staining or strong staining in less than 30% of stromal cells per core) and strong (2; defined as strong staining of 30% or more of the stromal cells). […]
For each patient, the date of breast cancer diagnosis, date of last follow-up, vital status at last follow-up, causes of death (breast cancer or other), and breast cancer recurrence, were recorded. […]

[3] = system: PD-ECGF/TP transfected cells; details: transfected compared with untransfected wild-type cells; Haraguchi (1993); cited from earlier work

CC(=O)O[C@]1(C(C)=O)CC[C@H]2[C@@H]3C[C@H](C)C4=CC(=O)CC[C@]4(C)[C@H]3CC[C@@]21C [MPA, medroxyprogesterone acetate]
neovascularization (neovascularization): potently inhibited

O=C(O)C(Cl)Cl [DCA, dichloro-acetate]
effect on tumor growth [1]: no effect

CCN(CC)CCCC(C)Nc1ccnc2cc(Cl)ccc12 (stereo not drawn) [chloroquine]
degradation of Cav-1 in lysosomal structures (Cav-1 down-regulation in adjacent stromal fibroblasts) [2]: inhibited

CC/C(=C(\c1ccccc1)c1ccc(OCCN(C)C)cc1)c1ccccc1 [Tamoxifen]
Cox regression of Progression-Free Survival (PFS): Coefficient (breast cancer patients): −0.476

O=CC[C@@H](O)[C@H](O)[C@H](O)CO [2-DG, 2-deoxy-D-glucose]
effect on tumor growth [1]: no effect

C[C@H]1O[C@@H](n2cc(F)c(=O)[nH]c2=O)[C@H](O)[C@@H]1O [5′DFUR, 5′-deoxy-5-fluorouridine]
antitumor effect [3]: dramatic enhancement of antitumor effect
